Data: PMC10993450, “New benzimidazole derivative compounds with in vitro fasciolicidal properties” (Parasites & Vectors, 2024)
Values joined by “and” are separate entries in the source; they are usually repeats but may differ in a detail not shown here. Equal values may be shown once. Read-outs that look alike come from different tables or passages of the source.

What was measured:
[1] = tested on: Fasciola hepatica eggs (ABZ-resistant isolate); test: Egg hatch test (EHT), ABZ-resistant isolate; format: cell-based; settings: ABZ at discriminant dose (DD) 0.5 µM
Excerpt: (§1) F. hepatica eggs were recovered after washing the gallbladder of three naturally infected sheep belonging to a flock suspected to be resistant to ABZ. From these eggs, metacercariae were produced at the Centro de Investigaciones de Mabegondo (AGACAL, Xunta de Galicia, Spain) following a previous protocol. These metacercariae were used to infect eight sheep with a dose of 200 metacercariae. The infection was confirmed individually 3 months after the infection by coprological analysis using a sedimentation technique. At that point, sheep were randomly located in two groups of four animals: one treated with a therapeutic dose of ABZ (7.5 mg/kg) and the other one only with water, as control group. To assess the efficacy of ABZ in this isolate, all sheep were humanely euthanized by an intravenous administration of a lethal dose of sodium pentobarbital (Dolethal®, Vetoquinol, Spain) 2 weeks later for fluke recovery and counting. Afterwards, the in vivo efficacy of ABZ was calculated as the percentage of adult worm reduction compared with the untreated control. Additionally, the number of eggs per gram of feces (EPG) was estimated on the treatment day (mentioned as day 0) and 14 days later to determine drug efficacy by means of the fecal egg count reduction test (FECRT).
During the necropsy, gallbladders from sheep belonging to the untreated group were taken to collect the eggs and carry out the in vitro EHT, while flukes collected from livers were used to conduct the adult viability test (AVT).
Those BZDs with an activity higher than 80% at a concentration of 10 µM were also screened on eggs and adults from the ABZ resistant isolate.
(§2) The in vitro EHT described in the current study was based on previous studies. Briefly, 100–120 eggs were incubated in 990 µL of water and 10 μL of each working solution at 25 °C in the dark for a period of 12 h. After incubation, eggs were gently washed with tap water three times to facilitate compound removal and kept in darkness at 25 °C for 14 days. After this period, eggs were exposed to light for 2 h to stimulate the hatching of eggs. Then, hatched and unhatched eggs were evaluated and counted using an optical microscope. The term “hatched eggs” includes both hatched and embryonated eggs. Negative control eggs were incubated with 10 μL of DMSO in 990 μL of water, reaching a maximum DMSO concentration of 1% (v/v), while ABZ at 0.5 µM was used as positive control. Each compound at a specific concentration was tested in triplicate in the same EHT and repeated at least two different days.
(§3) The efficacy of each compound and drug was calculated as its ovicidal activity following the formula below: Ovicidal activity%=100×%eggs hatched in negative control-%egg hatched after drug incubation/%egg hatched in control.

[2] = tested on: Fasciola hepatica eggs (ABZ-susceptible isolate); test: Egg hatch test (EHT), ABZ-susceptible isolates; format: cell-based; settings: ABZ-susceptible isolate
Experimental: Eggs were recovered from gallbladders of cattle naturally infected with F. hepatica at the municipal slaughterhouse of León (Spain). For this, the bile of the gallbladders was filtered through sieves of different diameter size pores (500, 150, and 20 µm) using pressurized tap water. Eggs retained on the 20 µm pore size sieve were collected and stored at 4 °C in darkness until required within a maximum period of 2 months.
The susceptibility of the isolates to ABZ was confirmed by the egg hatch test (EHT) using an ABZ discriminant dose (DD) of 0.5 µM [23]. The technique is described in more detail below.
The in vitro anthelmintic activity of a total of 70 BZDs was initially tested on F. hepatica eggs recovered from gallbladders of cattle naturally infected with ABZ-susceptible isolates. The first screening was performed using a fixed concentration of 50 µM. […] Therefore, only BZDs with ovicidal activities over 80% progressed to the next assays at 10 µM. […] At this last concentration, the ovicidal effect of ABZ, ABZSO, and OXF was also evaluated.
as §2
With the aim to characterize the susceptibility of isolates from naturally infected cattle, the drug used in the EHT was ABZ, tested at a discriminant dose of 0.5 μM. Drug susceptibility is assumed when the ovicidal activity is over 70%, resistance when is lower than 40%, and a suspicion of resistance when activity is between these values at 0.5 μM.
as §3

[3] = tested on: Fasciola hepatica (resistant isolate); test: In vivo efficacy of ABZ in sheep infected with the resistant isolate (worm count, FECRT); settings: ABZ 7.5 mg/kg
Excerpt: as §1, with “To assess the efficacy of ABZ in this isolate, all sheep were humanely euthanized by an intravenous administration of a lethal dose of sodium pentobarbital (Dolethal®, Vetoquinol, Spain) 2 weeks later for fluke recovery and counting.” left out, “Additionally, the number of eggs per gram of feces (EPG) was estimated on the treatment day (mentioned as day 0) and 14 days later to determine drug efficacy by means of the fecal egg count reduction test (FECRT).” left out
The percentage of in vivo efficacy of ABZ and the FECRT were calculated using the following formulas, respectively: %of Worm Reduction=100×Mean of adult worms in control group-Mean of adult worms in treated group/Mean of adult worms in control group. %FECRT=100×Arithmetic mean EPG day0-Arithmetic mean EPG day 14/Arithmetic mean EPG day0.

Fasciola hepatica eggs = tested on: Fasciola hepatica eggs; parameters: method as in PMID 19560276; settings: in vitro; other studies; cited from earlier work
[4] = tested on: murine intestinal organoids; test: Intestinal tolerability assay on murine intestinal organoids; format: cell-based, mouse
Experimental: The murine intestinal organoid cultures were prepared following Stemcell Technologies™ protocols (https://www.stemcell.com/intestinal-epithelial-organoid-culture-with-intesticult-organoid-growth-medium-mouse-lp.html#protocols). Small intestine sections from C57BL/6 mice were excised, washed with ice-cold PBS, minced, and 2 mm segments were washed extensively. The segments were treated with Gentle Cell Dissociation Reagent (Stemcell Technologies™, Canada), resuspended in ice-cold PBS with 0.1% BSA and filtered. This process was repeated four times, resulting in four fractions. Cells from each fraction were centrifuged, washed, and resuspended in ice-cold DMEM/F12 supplemented with glutamine and HEPES 15 mM. Each fraction was mixed with Geltrex GFR LDEV-free (Gibco, Thermo Fisher Scientific, USA) and IntestiCult™ Organoid Grow Medium Mouse (Stemcell Technologies™, Canada), added to a 24-well plate and incubated at 37 °C for 10 min for matrix polymerization. The organoids were cultured in IntestiCult™ Organoid Grow Medium Mouse, with medium changes every 2 days and splitting after 7 days.
For intestinal tolerability assays, selected hit compounds were tested in mouse intestinal organoids at 25 and 50 µM final concentrations. The protocol, based on a previous work, involved the addition of Gentle Cell Dissociation Reagent (Stemcell Technologies™, Canada) on matrix domes, the disruption of the matrix, and the incubation the suspension. After centrifugation, cells were resuspended in DMEM/F12 supplemented with glutamine and HEPES 15 mM and centrifugated again. The pellet was resuspended in a mix of Geltrex GFR LDEV-free and IntestiCult™ Organoid Grow Medium Mouse. The mix was plated in 384-well plates, and after 4 days, mature organoids were exposed to the compounds. The positive control was hydrogen peroxide (0.15% v/v), and the negative control was DMSO (0.2%). Viability after 72 h was assessed using the alamarBlue assay.

HepG2 cells = test: Cytotoxicity assay, alamarBlue; format: cell-based, human
Experimental: The effect of the BZDs on cell viability was assessed on a human hepatocarcinoma HepG2 (ATCC® HB-8065™, USA) cell line. Only compounds screened at a concentration of 10 µM were evaluated. The detailed protocol is described in a previous study carried out by our research group. Briefly, 10,000 cells were seeded on 96-well plates and incubated with different concentrations of the compounds ranging from 1 to 100 µM at 37 °C and 5% CO2. After 72 h of exposure, viability of the cells was assessed using the alamarBlue (Fisher Scientific®, Spain) staining method according to the manufacturer’s recommendations.
The data are represented as mean ± standard error of media (SEM).

[5] = tested on: Heligmosomoides polygyrus adults; parameters: method as in PMID 35804427; settings: 10 µM; cited from earlier work
[6] = tested on: Teladorsagia circumcincta eggs; settings: read-out: 50% inhibitory concentration (IC50) in eggs by the EHT; T. circumcincta eggs; type I BZDs; cited from earlier work
Trichuris muris adults = tested on: Trichuris muris adults; parameters: method as in PMID 35804427; settings: 10 µM; cited from earlier work

CCCSc1ccc2nc(NC(=O)OC)[nH]c2c1 [ABZ, albendazole, reference compound]
% Ovicidal activity resistant isolate [1]: 36.5% | % Ovicidal activity resistant isolate ([1]; listed as ABZ (DD)): 36.46 ± 02.36% | % Ovicidal activity ([2]; ABZ at discriminant dose (DD) 0.5 µM): 99.1% and 98% | % Ovicidal activity ([2]; ABZ at discriminant dose (DD) 0.5 µM, listed as ABZ (DD)): 99.01 ± 00.37% and 98.55 ± 00.41% | reduction in the number of eggs in feces (FECRT) ([3]; day 0 vs day 14): 0% | survival rate of the adult flukes ([3]; necropsy 2 weeks after treatment): 96.7% | Lowest concentration able to reduce egg hatching (Fasciola hepatica eggs): 0.05 µM

COc1ccc(-c2nc3cc(C)ccc3[nH]2)cc1 [BZD04]
% Ovicidal activity ([2]; 10 µM, mean ± SEM): 64.27 ± 10.16% | % Ovicidal activity ([2]; 50 µM, mean ± SEM): 99.57 ± 0.43% | % Ovicidal activity ([2]; 50 µM, mean ± SEM, listed as BZD-04): higher than 80% | % Viability in organoids ([4]; 50 µM): 10.50%

COc1ccc(-c2nc3cc(Cl)ccc3[nH]2)cc1 [BZD08]
CC50 (HepG2 cells): > 50 µM | % Ovicidal activity ([2]; 10 µM, mean ± SEM): 55.33 ± 05.81% | % Ovicidal activity ([2]; 10 µM, mean ± SEM, listed as BZD-08): around 50% | % Ovicidal activity ([2]; 50 µM, mean ± SEM): 98.08 ± 1.06% | % Ovicidal activity ([2]; 50 µM, mean ± SEM, listed as BZD-08): higher than 80% | % Viability in organoids ([4]; 25 µM): 69.30% | % Viability in organoids ([4]; 50 µM): 47.30%

Clc1ccc(-c2nc3cc(Cl)ccc3[nH]2)cc1 [BZD09]
% Ovicidal activity ([2]; 50 µM, mean ± SEM): 04.96 ± 1.22% | Inhibition of motility of Heligmosomoides polygyrus adults [5]: effectively inhibited the motility | IC50 [6]: 6 µM

O=[N+]([O-])c1ccc2[nH]c(-c3ccc(Cl)cc3)nc2c1 [BZD15]
% Ovicidal activity ([2]; 50 µM, mean ± SEM): 24.32 ± 10.58% | Inhibition of Trichuris muris adult motility (Trichuris muris adults): inhibited Trichuris muris adult motility

Cc1ccc2[nH]c(NCc3ccccc3)nc2c1 [BZD27]
% Ovicidal activity ([2]; 10 µM, mean ± SEM): 44.65 ± 07.46% | % Ovicidal activity ([2]; 10 µM, mean ± SEM, listed as BZD-27): around 50% | % Ovicidal activity ([2]; 50 µM, mean ± SEM): 95.92 ± 1.99% | % Ovicidal activity ([2]; 50 µM, mean ± SEM, listed as BZD-27): higher than 80% | % Viability in organoids ([4]; 25 µM, 72 h): 54.10% | % Viability in organoids ([4]; 50 µM, 72 h): 49.70%

Cc1ccc2[nH]c(NCc3ccco3)nc2c1 [BZD30]
CC50 (HepG2 cells; 72 h exposure, alamarBlue, read-out: CC50 Hep-G2): > 50 µM | % Ovicidal activity ([2]; 10 µM, mean ± SEM): 52.41 ± 01.02% | % Ovicidal activity ([2]; 10 µM, mean ± SEM, listed as BZD-30): around 50% | % Ovicidal activity ([2]; 50 µM, mean ± SEM): 100.00 ± 0.00% | % Ovicidal activity ([2]; 50 µM, mean ± SEM, listed as BZD-30): higher than 80% | % Viability in organoids ([4]; 25 µM, 72 h): 62.50% | % Viability in organoids ([4]; 50 µM, 72 h): 54.00%
